Data: patent publication US20240188571A1, “EMULSIFIABLE CONCENTRATE COMPOSITION AS WOOD PROTECTANT AND FOR TERMITE AND FUNGAL PATHOGENS CONTROL APPLICATIONS” (priority 2021, published 2024)
Marks after values point to notes of the source that are not given here.

Tests used:
[1] = system: termite, Odontotermes sp.; experiment: Topical (direct contact toxicity) assay against termites, planar arena; format: in vivo; details: 25 ml/lit., after 24 hours, mean of five replications
Protocol: (§1) The formulation was evaluated under laboratory conditions following standard protocols for its contact and surface toxicity, against termite, Odontotermes sp. to simulate real field conditions. In the topical (direct contact toxicity) assay, the bio-termiticide was sprayed directly on the termites and mortality (death), repellence (moving away) or anti-feedant (non-feeding) effects were studied. This assay was carried out in simulation of curative management viz., post-infestation management. In the surface toxicity assay the surface on which the termites walk over was sprayed, termites were allowed to move on the treated surface later and mortality (death), repellence (moving a way) or anti-feedant (non-feeding) effects were studied. This assay was carried out in simulation of preventive management viz., pre-infestation management. These two methods were planned as they suffice the current needs of pre- and post-infestation termite management.
(§2) Both the topical and surface toxicity bioassays were carried out using planar arena assay method (Chouvenc et al. 20112011, Planar Arenas for Use in Laboratory Bioassay Studies of Subterranean Termites (Rhinotermitidae). Florida Entomologist, 94(4): 817-826) with minor modifications. Seven concentrations of the cedar wood oil Emulsifiable concentrate formulation, standard check Chlorpyriphos and untreated control were used in the bioassay. […]

[2] = system: termite, Odontotermes sp.; experiment: Surface toxicity assay against termites, planar arena; format: in vivo; details: 25 ml/lit., termites released one hour after spraying, mean of five replications
Protocol: as §1, §2

decay fungi = experiment: Protection of wood from decay fungi, Marandi wood blocks kept in open space for one year; details: Marandi wood blocks sprayed, untreated control infested by Fusarium oxysporum
Description: Blocks of Marandi wood of size 30×15×4 cm (L×B×W) were taken for the experiment. The emulsion of cedar wood oil emulsifiable concentrate formulation in water was sprayed on two replicates of wooden blocks using a band sprayer. No emulsion was applied on untreated control. Market sample of Propiconazole was used as standard check for comparing the effect of this botanical cedar wood oil emulsifiable concentrate formulation. The blocks after application and untreated control were kept in open space for a period of one year starting from the month of November up to the month of October to subject the blocks to winter, summer and rainy season. Observations on the wooden blocks were taken to check the infestation of fungi and damage caused by fungi.

Compound	Percent Mortality [1]	Percent repellence [1]	Percent Mortality [2]	Percent repellence [2]	infestation of fungi on treated wooden blocks (decay fungi)
CCOP(=S)(OCC)Oc1nc(Cl)c(Cl)cc1Cl [Chlorpyriphos]	92 (73.57)^b Percent	0 (0.29)^e Percent	80 (63.43)^b Percent	4 (11.54)^e Percent	
CCCC1COC(Cn2cncn2)(c2ccc(Cl)cc2Cl)O1 (centres unmarked) [Propiconazole]					No infestation of the fungi
